Results reported in PubChem BioAssay (NCI).
Where “and” joins values, the source holds several entries; their conditions need not be identical. Equal values may be shown once.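 A five-concentration, 48-hour dose response in 96-well plates underlies each endpoint, interpolated linearly between surrounding concentrations. GI50 is the concentration that inhibits growth by half. Definition used: TGI = concentration required for complete inhibition of growth.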 Where a SMILES comes first, the peptide text is derived from it. [ ]: non-standard residue; d: D form. The star is where a group is joined. ξ: configuration not given here. NMeY = CN[C@@H](Cc1ccc(O)cc1)C(=O)O; Cbz = O=C(OCc1ccccc1)*; ξA = CC(N)C(=O)O

Assays:
Test in all cases: NCI tumour cell line growth inhibition, 48 h
COLO 205 colon = tested on: COLO 205 colon
HCT-116 colon = tested on: HCT-116 colon
HCT-15 colon = tested on: HCT-15 colon
HL-60(TB) leukemia = tested on: HL-60(TB) leukemia
MCF7 breast = tested on: MCF7 breast
NCI-H23 lung = tested on: NCI-H23 lung
NCI-H460 lung = tested on: NCI-H460 lung
SK-OV-3 ovarian = tested on: SK-OV-3 ovarian
SR leukemia = tested on: SR leukemia
UACC-62 melanoma = tested on: UACC-62 melanoma

## O=C1CCC2(CC1)Cc1ccccc1C2O (configuration not stated)
COLO 205 colon
  TGI: > 100 µM
HCT-116 colon
  TGI: > 100 µM
HCT-15 colon
  TGI: > 100 µM
HL-60(TB) leukemia
  TGI: > 100 µM
MCF7 breast
  TGI: > 100 µM
NCI-H23 lung
  TGI: > 100 µM
NCI-H460 lung
  TGI: > 100 µM
SK-OV-3 ovarian
  TGI: > 100 µM
SR leukemia
  TGI: > 100 µM
UACC-62 melanoma
  TGI: > 100 µM

## CCOC(=O)c1cc(-c2ccc(OC)c(OC)c2)c[nH]1
COLO 205 colon
  TGI: > 10 µM
HCT-116 colon
  TGI: > 10 µM
HCT-15 colon
  TGI: > 10 µM
HL-60(TB) leukemia
  TGI: > 10 µM
MCF7 breast
  TGI: > 10 µM
NCI-H23 lung
  TGI: > 10 µM
NCI-H460 lung
  TGI: > 10 µM
SK-OV-3 ovarian
  TGI: > 10 µM
SR leukemia
  TGI: > 10 µM
UACC-62 melanoma
  TGI: > 10 µM

## O=S1(=O)NNC(=NCc2ccc(F)cc2)c2ccccc21
COLO 205 colon
  TGI: > 100 µM
HCT-116 colon
  TGI: > 100 µM
HCT-15 colon
  TGI: > 100 µM
HL-60(TB) leukemia
  TGI: 19.6 µM
MCF7 breast
  TGI: > 100 µM
NCI-H23 lung
  TGI: > 100 µM
NCI-H460 lung
  TGI: > 31.6 µM
SK-OV-3 ovarian
  TGI: > 100 µM
SR leukemia
  TGI: > 68.8 µM
UACC-62 melanoma
  TGI: > 100 µM

## CCOC(=O)CCC(NC(=O)OCc1ccccc1)C(=O)NNC(=O)OC(C)(C)C (configuration not stated)
COLO 205 colon
  TGI: > 100 µM
HCT-116 colon
  TGI: > 100 µM
HCT-15 colon
  TGI: > 100 µM
HL-60(TB) leukemia
  TGI: > 100 µM
MCF7 breast
  TGI: > 100 µM
NCI-H23 lung
  TGI: > 100 µM
NCI-H460 lung
  TGI: > 100 µM
SK-OV-3 ovarian
  TGI: > 100 µM
SR leukemia
  TGI: > 100 µM
UACC-62 melanoma
  TGI: > 100 µM

## Oc1ccc2ccccc2c1-c1nnc(CCCCCCCCc2nnc(-c3c(O)ccc4ccccc34)o2)o1
COLO 205 colon
  GI50: 5.99 µM
  TGI: 15 µM and > 44.9 µM
HCT-116 colon
  GI50: 796 nM
  TGI: 13.7 µM and > 50.3 µM
HCT-15 colon
  GI50: 563 nM
  TGI: 25 µM and > 100 µM
HL-60(TB) leukemia
  TGI: 2.5 µM
MCF7 breast
  TGI: > 37.2 µM
NCI-H23 lung
  GI50: 1220 nM
  TGI: 6.33 µM and > 62.2 µM
NCI-H460 lung
  GI50: 715 nM
  TGI: 25 µM and > 47.2 µM
SK-OV-3 ovarian
  TGI: > 100 µM
SR leukemia
  GI50: 1600 nM and 280 nM
  TGI: 25 µM and 11.9 µM
UACC-62 melanoma
  GI50: 2540 nM
  TGI: 25 µM and > 100 µM

## Cc1[nH]c(=O)nc(N/N=C/c2ccc(Cl)c(Cl)c2)c1C(=O)Nc1ccc(Cl)c(Cl)c1
COLO 205 colon
  TGI: > 44.1 µM
HCT-116 colon
  TGI: > 20.5 µM
HCT-15 colon
  TGI: > 42.9 µM
HL-60(TB) leukemia
  TGI: > 78.2 µM
MCF7 breast
  TGI: 57 µM
NCI-H23 lung
  TGI: > 44.9 µM
NCI-H460 lung
  TGI: > 49.6 µM
SK-OV-3 ovarian
  TGI: 26.9 µM
SR leukemia
  TGI: > 100 µM
UACC-62 melanoma
  TGI: 41.2 µM

## OC(CC(c1ccccc1)c1ccc(Cl)cc1)c1ccc(Cl)cc1 (configuration not stated)
COLO 205 colon
  TGI: 34.8 µM
HCT-116 colon
  TGI: > 100 µM
HCT-15 colon
  TGI: > 100 µM
HL-60(TB) leukemia
  TGI: 64.6 µM
MCF7 breast
  TGI: 86.2 µM
NCI-H23 lung
  TGI: 87.8 µM
NCI-H460 lung
  TGI: > 100 µM
SK-OV-3 ovarian
  TGI: 90.8 µM
SR leukemia
  TGI: 73.5 µM
UACC-62 melanoma
  TGI: > 100 µM

## CCOC(=O)C1C/C(C)=C(/C)SCCCS1 (configuration not stated)
COLO 205 colon
  TGI: > 100 µM
HCT-116 colon
  TGI: > 100 µM
HCT-15 colon
  TGI: > 100 µM
HL-60(TB) leukemia
  TGI: 54.6 µM
MCF7 breast
  TGI: > 100 µM
NCI-H23 lung
  TGI: > 100 µM
NCI-H460 lung
  TGI: > 100 µM
SK-OV-3 ovarian
  TGI: > 100 µM
SR leukemia
  TGI: > 100 µM
UACC-62 melanoma
  TGI: > 100 µM

## CCCCc1ccc2[n+](c1)C(C(=O)OCC)=PC2 (configuration not stated)
COLO 205 colon
  TGI: > 100 µM
HCT-116 colon
  TGI: > 100 µM
HCT-15 colon
  TGI: > 100 µM
HL-60(TB) leukemia
  TGI: > 100 µM
MCF7 breast
  TGI: > 100 µM
NCI-H23 lung
  TGI: > 100 µM
NCI-H460 lung
  TGI: > 100 µM
SK-OV-3 ovarian
  TGI: > 100 µM
SR leukemia
  TGI: > 100 µM
UACC-62 melanoma
  TGI: > 100 µM

## CC(=O)N[C@@H](Cc1ccc(O)cn1)C(=O)NCc1ccc2c(c1)OCO2
COLO 205 colon
  TGI: > 100 µM
HCT-116 colon
  TGI: > 100 µM
HCT-15 colon
  TGI: > 100 µM
HL-60(TB) leukemia
  TGI: > 100 µM
MCF7 breast
  TGI: > 100 µM
NCI-H23 lung
  TGI: > 100 µM
NCI-H460 lung
  TGI: > 100 µM
SK-OV-3 ovarian
  TGI: > 100 µM
SR leukemia
  TGI: > 100 µM
UACC-62 melanoma
  TGI: > 100 µM

## COc1ccc(C[C@@H](C(=O)NCC(N)=O)N(C)C(=O)[C@@H]2CCCN2C(=O)[C@H](CC(C)C)NC(=O)C(C)NC(=O)OCc2ccccc2)cc1 (some centres not stated) (Cbz-[ξA]LP[NMeY](Me)G-NH2)
COLO 205 colon
  TGI: > 100 µM
HCT-116 colon
  TGI: > 100 µM
HCT-15 colon
  TGI: > 100 µM
HL-60(TB) leukemia
  TGI: > 100 µM
MCF7 breast
  TGI: > 100 µM
NCI-H23 lung
  TGI: > 100 µM
NCI-H460 lung
  TGI: > 100 µM
SK-OV-3 ovarian
  TGI: > 100 µM
SR leukemia
  TGI: > 100 µM
UACC-62 melanoma
  TGI: > 100 µM

## CCOC(=O)c1c2c(n(C)c1-c1ccccc1)C(=O)C(C)=CC2=O
COLO 205 colon
  TGI: 4.5 µM
HCT-116 colon
  TGI: 15 µM
HCT-15 colon
  TGI: 17.7 µM
HL-60(TB) leukemia
  TGI: 9.79 µM
MCF7 breast
  TGI: 6.01 µM
NCI-H23 lung
  TGI: 29.7 µM
NCI-H460 lung
  TGI: 47.8 µM
SK-OV-3 ovarian
  TGI: 30.4 µM
SR leukemia
  TGI: 9.39 µM
UACC-62 melanoma
  TGI: 23.9 µM

## CN(C)c1ccc(C(=NNC(=O)c2cc3ccccc3[nH]2)c2ccc(N(C)C)cc2)cc1
COLO 205 colon
  TGI: > 20.7 µM
HCT-116 colon
  TGI: > 34.2 µM
HCT-15 colon
  TGI: > 100 µM
HL-60(TB) leukemia
  TGI: 0.678 µM
MCF7 breast
  TGI: > 51 µM
NCI-H23 lung
  TGI: > 32.9 µM
NCI-H460 lung
  TGI: > 100 µM
SK-OV-3 ovarian
  TGI: > 87.7 µM
SR leukemia
  TGI: > 100 µM
UACC-62 melanoma
  TGI: > 54 µM

## O=C(Nc1cccc2nsnc12)c1cc2c(cc1Cl)Sc1nccn1S2(=O)=O
COLO 205 colon
  TGI: 33.3 µM
HCT-116 colon
  TGI: 6.97 µM
HCT-15 colon
  TGI: 25.6 µM
HL-60(TB) leukemia
  TGI: 3.72 µM
MCF7 breast
  TGI: 3.4 µM
NCI-H23 lung
  TGI: 25.3 µM
NCI-H460 lung
  TGI: 5.98 µM
SK-OV-3 ovarian
  TGI: > 100 µM
SR leukemia
  TGI: > 21.8 µM
UACC-62 melanoma
  TGI: 17.6 µM

## CC1=NN(c2nc(N)nc(/C(C#N)=C/c3ccncc3)n2)C(C)(C)C1
COLO 205 colon
  TGI: > 100 µM
HCT-116 colon
  TGI: > 100 µM
HCT-15 colon
  TGI: > 100 µM
HL-60(TB) leukemia
  TGI: > 100 µM
MCF7 breast
  TGI: > 100 µM
NCI-H23 lung
  TGI: > 100 µM
NCI-H460 lung
  TGI: > 100 µM
SK-OV-3 ovarian
  TGI: > 100 µM
SR leukemia
  TGI: > 100 µM
UACC-62 melanoma
  TGI: > 100 µM
